In patent US11447477B2, “Indoleamine-2,3-dioxygenase inhibitor, the preparative method and the use thereof” (HINOVA PHARMACEUTICALS INC., priority 2017, dated 2022):

Legend:
Pharmacokinetics in mice = type: in vivo, ICR mice; conditions: for Cmax: read-out: Blood concentration Cmax; for AUC: read-out: Curve area AUC; for Tmax: read-out: Peak time tmax; for MRT inf: read-out: Retention time MRTinf
Excerpt: 1) Experimental Materials and Apparatus: • LC-20AD HPLC system (SHIMADZU, Japan) • API4000 Triple quadrupole mass spectrometer (Applied Biosystem, USA) • PhenixWinnolin Pharmacokinetic software (Version 6.3, Certara, USA) • High speed freezing centrifuge (Thermo Fisher Scientific) • Analytical balance (SECURA225D-1CN) • Experimental animals: ICR mice (Chengdu Dashuo Experimental Animal Co., Ltd) • DMA (Sigma) • CMC-Na (Chengdu Kelong Chemical Co., Ltd) • Heparin (Chengdu Kelong Chemical Co., Ltd)
2) Experimental Methods and Results
A solution at concentration of 0.5 mg/mL was prepared. 0.2 ml of the final solution prepared was taken out and stored at −20° C. for concentration determination. Nine healthy adult ICR mice (20-30 g) were fasted overnight (free drinking water) and then administrated at a dosage of 0.2 mL/10 g by gavage. Prior to administration and 0.5, 1, 2, 4, 6, 8, 12, 24 h after administration, 0.1 mL blood was collected from the posterior orbital venous plexus and centrifuged at 4° C. for 5 min to separate the plasma, which was preserved at −20° C. for testing. Then the concentrations of tested compounds in the plasma were determined by LC/MS/MS.

[1] = biological target: IDO protease in HeLa cells (Homo sapiens (Human), UniProt P14902); assay: Inhibition of IDO protease in HeLa cells (IFNγ-induced, Trp/Kyn by RapidFire/MS); type: cell-based; conditions: for IC50: HeLa cells, 25 ng/ml IFNγ, 48 hours
Chain of IDO protease in HeLa cells (P14902 whole entry): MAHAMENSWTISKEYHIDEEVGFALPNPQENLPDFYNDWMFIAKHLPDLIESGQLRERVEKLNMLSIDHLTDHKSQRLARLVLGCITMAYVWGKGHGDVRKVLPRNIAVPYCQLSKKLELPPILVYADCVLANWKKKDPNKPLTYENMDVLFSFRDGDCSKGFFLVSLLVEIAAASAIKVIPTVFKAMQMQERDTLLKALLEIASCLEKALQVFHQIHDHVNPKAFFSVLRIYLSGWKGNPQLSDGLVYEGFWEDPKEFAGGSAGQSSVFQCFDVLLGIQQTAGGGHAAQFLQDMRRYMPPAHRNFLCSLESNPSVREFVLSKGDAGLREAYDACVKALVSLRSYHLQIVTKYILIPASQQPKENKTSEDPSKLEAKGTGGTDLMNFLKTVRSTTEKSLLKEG
Excerpt: 1) Experimental Materials and Apparatus • HeLa cells (ATCC, Cat. No. CCL-2) • γ interferon IFNγ (R&D, Cat. No. 285-IF-100) • DMEM High Glucose media (Invitrogen, Cat. No. 11965-084) • Fetal bovine serum FBS (Invitrogen, Cat. No. 10100-147) • Trypsin-EDTA (0.050%)(Invitrogen, Cat. No. 25300-054) • Phosphate buffer solution PBS, pH 7.4 (Invitrogen, Cat. No. 10010023) • Penicillin-Streptomycin (P/S) (Invitrogen, Cat. No. 15070063) • L-tryptophan (Trp) (Sigma, Cat. No. T8941) • L-kynurenine (Kyn) (Sigma, Cat. No. K8625) • N′-diformylkynurenine (NFK) (J&K, Cat. No. F700490) • 3-Nitro-L-tyrosine (J&K, Cat. No. N0905) • Acetonitrile (Sigma, Cat. No. 34851) • Dimethylsulfoxide DMSO (Sigma, Cat. No. D8418) • Inhibitor INCB024360 (Selleckchem, Cat. No. S7910) • Inhibitor INCB024360-analog (MedKoo, Cat. No. 205493) • Inhibitor NLG919 (Selleckchem, Cat. No. S7111) • 96 well transparent flat bottom polystyrene cell culture plate (Corning, Cat #3599) • 96 well V-bottom polypropylene plate (PE, Cat #6008290) • 96 well U-shaped bottom polypropylene plate (PE, Cat. No. 6008390) • Multidrop™ distribution box with small metal tip (Thermo, Cat. No. 24073295) • Multidrop™ distribution box of standard tube with metal tip (Thermo, Cat. No. 24072670) • Automatic filling platform (Agilent) • Multidrop™ Combi automatic liquid separator (Thermo) • Centrifugal machine (Eppendorf) • Cell incubator (Thermo) • Cell counter (Thermo) • RapidFire Mass system (Agilent)
2) Experimental Method for Compound Assay
The compound (compounds 4, 8, 9, 78, 91 of the present invention) was dissolved in DMSO to prepare a solution with a concentration of 3 mM, and then 15 μL of the compound solution is added to a 96 well plate, and serially diluted by 3 times dilution to obtain 10 points. 2 μL compound solution or DMSO (for HPE/ZPE) was transferred to a new 96 well plate. HeLa cell suspension was seeded into the cell culture plate with a density of 1×10^4 cells/well. For HPE control well, the cell culture medium for detection was DMEM, including 10% FBS, 1% P/S, and 122 μM Trp; for ZPE control well and the compound wells, the cell culture medium was DMEM, including 10% FBS, 1% P/S, […], and 25 ng/ml IFNγ. 192 μL detection medium prepared as above was added to a 96 well plate. 78 μL DMEM was added to the compound plate and thoroughly mixed, and then 8 μL compound solution diluted with DMEM was transferred to the 96 well plate containing the detection medium. The cell culture plate was taken out, and the cell culture medium was discarded, then 100 μL compound solution mentioned above was transferred to the cell culture plate. The cell culture plate was moved into the cell incubator and kept for 48 hours. When detected, the cell culture plate was taken out, and 50 μL supernatant was transferred to a new 96 well plate, to which was added 200 μL acetonitrile, and the plate was mixed well. The plate was centrifugated at 4° C. for 20 minutes (rotatory speed being 4000 rpm), and 40 μL supernatant was transferred to another 96 well plate, to which was further added 360 μL deionized water containing […] internal reference (3-nitro-L-tyrosine). The plate was fully mixed, and then the sample was detected by RapidFire/MS system. The standards of L-tryptophan (Trp) and L-kynurenine (Kyn) were dissolved in water to obtain a concentration of 10 mM, and the standard curve was performed by three times dilution. The inhibitory ratio was calculated by obtained data, and the IC50 curve was completed by processing the resultant data with Graphpad Prism5 software.

human IDO1 protease = human IDO1 protease (Homo sapiens (Human), UniProt P14902); assay: Inhibitory activity against human IDO1 protease (absorbance test method); type: biochemical; conditions: IDO1 (His-tag) enzyme, absorbance at 320 nm
Chain of human IDO1 protease (P14902 whole entry): as above
Procedure: 1) Experimental Materials and Apparatus: • IDO1 (His-tag) enzyme (BPS Bioscience) • L-tryptophan (Sigma) • Methylene blue (Sigma) • Catalase originated from the liver of cattle (Sigma) • L-ascorbic acid (Sigma) • Glycerol (Sigma) • Potassium dihydrogen phosphate solution (Sigma) • Tween 20 (Sigma) • Automatic sampling platform Liquid handler (Bravo & Echo) • Microplate Reader SpectraMax M5e (Molecular Devices)
2) Test Method of Compounds: The Compounds are Determined by Absorbance Test Method:
The tested compounds and the reference compounds are dissolved in DMSO to prepare a high concentration of storage solution. The stock solution of reference compound was diluted with DMSO to prepare a 100× solution. In the first column of the working plate, 8 μL above tested compounds and 8 μL 100× reference compound were respectively added as the highest concentration, and then the highest concentrations were subjected to three times dilution to obtain 11 concentrations and prepare 100× solution. 0.5 μL solution was transferred from the above plate to the detection plate. […]. For HPE and ZPE control wells, 0.5 μL 100% DMSO was added.
25 μL 2×IDO1 (His-tag) enzyme solution (containing L-ascorbic acid, methylene blue, and catalase) was added to each well. 25 μL reaction solution without IDO1 (His-tag) enzyme was added into HPE control well. The test plate was centrifugated at 1000 rpm for 1 minute to mix well. Then, the test plate was incubated at room temperature for 30 minutes. 25 μL above 2× substrate (L-tryptophan) solution was added to each well. The test plate was centrifugated at 1000 rpm for 1 minute to mix well. The detection plate was placed on ELISA (SpectraMax M5e), the temperature was set at 25° C., and the absorbance (OD value) was measured at 320 nm every 10 minutes till 60 minutes.
Calculating the increase ratio of absorbance: the slope of the absorbance increase curve from 10 min to 60 min is derived from SpectralMax M5e. The inhibition coefficient of compound was calculated: the inhibition ratio of compound=(the absorbance increase ratio of ZPE control well−the absorbance increase ratio of compound well)/(the absorbance increase ratio of ZPE control well−the absorbance increase ratio of HPE control well)×100. Results was analyzed by Prism 5.0.

[2] = ICR, mouse, 10 mg/kg, PO, 10 mpk, plasma

Row | IC50 [1] [nM] | IC50 (human IDO1 protease) [nM] | Structure (SMILES) | other results
1 | 13 | 69 | CNS(=O)(=O)N1CC(CNc2nonc2C(=NO)Nc2ccc(F)c(Br)c2)C1 [Compound 78] | –
2 | 74 | – | NS(=O)(=O)N1CC(F)(CNc2nonc2C(=NO)Nc2ccc(F)c(Br)c2)C1 [Compound 91, (Z)—N-(3-bromo-4-fluorophenyl)-4-(3-fluoro-1-sulfadiazin-3-yl)methyl)amino)-N′-hydroxyl 1,2,5-oxadiazol-3-carboxyoximide] | –
3 | 10 | – | NS(=O)(=O)N1CC(CCNc2nonc2/C(=N/O)Nc2ccc(F)c(Br)c2)C1 [Compound 132, (Z)—N-(3-bromo-4-fluorophenyl)-N′-hydroxyl-4-((2-(1-sulfamoylazetidin-3-yl)ethyl)amino)-1,2,5-oxadiazol-3-formamidine] | –
4 | 75 | – | NC(=O)N1CC(CNc2nonc2/C(=N/O)Nc2ccc(F)c(Br)c2)C1 [Compound 140, (Z)—N-(3-bromo-4-fluorophenyl)-N′-hydroxyl-4-(((1-carbamoylazetidin)-3-methyl)amino)-1,2,5-oxadiazol-3-formamidine] | –
5 | 9 | 81 | [2H]C([2H])(Nc1nonc1/C(=N/O)Nc1ccc(F)c(Br)c1)C1CN(S(N)(=O)=O)C1 [Compound 150, (Z)—N-(3-bromo-4-fluorophenyl)-N′-hydroxyl-4-(((1-sulfadiazin-3-yl)methyl-D2)amino)-1,2,5-oxadiazol-3-carboxyoximide] | –

More lines, now with the values behind:

Row | Structure (SMILES) | IC50 [1] [nM] | IC50 (human IDO1 protease) [nM] | other results
6 | NS(=O)(=O)N1CC(CNc2nonc2/C(=N/O)Nc2ccc(F)c(Br)c2)C1 [Compound 4, N-(3-Bromo-4-fluorophenyl)-N′-hydroxyl-4-(((1-sulfamoylazetidin-3-yl)methyl)amino)-1,2,5-oxadiazole-3-formamidine] | 5 | 55 | half-life time compared with the reference compound INCB-24360 (in words) (Pharmacokinetics in mice): longer half-life time; Cmax (Pharmacokinetics in mice; [2]): 1080 ng/mL; AUC (Pharmacokinetics in mice; [2]): 1760 ng·h/mL; half-life (Pharmacokinetics in mice; ICR, mouse, 10 mg/kg, PO, 10 mpk, plasma, read-out: Half time t1/2 (converted)): 5.06 h; Tmax (Pharmacokinetics in mice; [2]): 0.5 h; MRT inf (Pharmacokinetics in mice; [2]): 3.28 h; inhibitory activities on IDO protease in HeLa cells (in words) [1]: excellent
7 | NS(=O)(=O)N1CC[C@@H](CNc2nonc2/C(=N/O)Nc2ccc(F)c(Br)c2)C1 [Compound 8, (S)—N-(3-Bromo-4-fluorophenyl)-N′-hydroxyl-4-(((1-sulfamoylpyrrolidine-3-yl)methyl)amino)-1,2,5-oxadiazole-3-formamidine] | 17 | 112 | –
8 | NS(=O)(=O)N1CC[C@H](CNc2nonc2/C(=N/O)Nc2ccc(F)c(Br)c2)C1 [Compound 9, (R)—N-(3-bromo-4-fluorophenyl)-N′-hydroxyl-4-(((1-sulfamoylpyrrolidine-3-yl)methyl)amino)-1,2,5-oxadiazole-3-formamidine] | 15 | 84 | –
9 | NS(=O)(=O)N1CC(F)(CNc2nonc2/C(=N/O)Nc2ccc(F)c(Br)c2)C1 [Compound 91] | – | 128 | inhibitory activities on IDO protease in HeLa cells (in words) [1]: excellent
10 | NS(=O)(=O)N1CC(CSc2nonc2/C(=N/O)Nc2ccc(F)c(Br)c2)C1 [Compound 148] | 14 | – | –
11 | NS(=O)(=O)N1CC(CCSc2nonc2/C(=N/O)Nc2ccc(F)c(Br)c2)C1 [Compound 149, (Z)—N-(3-bromo-4-fluorophenyl)-N′-hydroxyl-4-((2-(1-sulfamoylazetidin-3-yl)ethyl)thio)-1,2,5-oxadiazol-3-formamidine] | 18 | – | –
12 | NS(=O)(=O)NCCNc1nonc1C(=NO)Nc1ccc(F)c(Br)c1 [INCB24360, reference compound] | – | – | Cmax (Pharmacokinetics in mice; [2]): 992 ng/mL; AUC (Pharmacokinetics in mice; [2]): 1810 ng·h/mL; Tmax (Pharmacokinetics in mice; [2]): 0.5 h; MRT inf (Pharmacokinetics in mice; [2]): 2.03 h
